Values joined by “and” are separate entries in the source; they are usually repeats but may differ in a detail not shown here. Identical values can stand only once.
Tested on: patients with treatment-resistant major depressive disorder (TRD)
Experiment: Phase 1/2 clinical trial of inhaled 5-MeO-DMT in TRD patients (12 mg, 18 mg, individualized dosing regimen IDR 6/12/18 mg)
Protocol: Patients were assigned to different groups. In the context of the present invention, the group who received a single, 12 mg dose and the group who underwent an intra-day individualized dosing regimen (IDR) that allowed for multiple, escalating doses (6 mg, 12 mg and 18 mg) within a single day, driven by the intensity of the patient-reported psychedelic experience are of interest.
The data gathered include the assessment of the treated patients against several scales including the Montgomery-Åsberg Depression Rating Scale (MADRS) and the Brief Psychiatric Rating Scale (BPRS).
This trial was designed in two parts. Part A was an open-label, single-arm, single-dose Phase 1 trial with two dose levels (12 mg (n=4) and 18 mg (n=4)). […] The primary endpoint of Part B was to assess the effects on the severity of depression, as assessed by the proportion of patients in remission on day seven after dosing, defined as a MADRS total score of less than or equal to 10.

COc1ccc2[nH]cc(CCN(C)C)c2c1 [5-MeO-DMT]
MADRS Concentration Difficulties improvement (points) (IDR n=8, 2 h): 19 | MADRS Concentration Difficulties percentage improvement (IDR n=8, 2 h): 63% and 63.33% | MADRS Concentration Difficulties summed score (IDR n=8, 2 h): 11 | MADRS Inability to Feel improvement (points) (IDR n=8, 2 h): 24 | MADRS Inability to Feel percentage improvement (IDR n=8, 2 h): 67% and 66.67% | MADRS Inability to Feel summed score (IDR n=8, 2 h): 12 | MADRS Inner Tension improvement (points) (IDR n=8, 2 h): 15 | MADRS Inner Tension percentage improvement (IDR n=8, 2 h): 58% and 57.69% | MADRS Inner Tension summed score (IDR n=8, 2 h): 11 | MADRS Lassitude improvement (points) (IDR n=8, 2 h): 17 | MADRS Lassitude percentage improvement (IDR n=8, 2 h): 63% and 62.96% | MADRS Lassitude summed score (IDR n=8, 2 h): 10 | MADRS Pessimistic Thoughts improvement (points) (IDR n=8, 2 h): 21 | MADRS Pessimistic Thoughts percentage improvement (IDR n=8, 2 h): 75% | MADRS Pessimistic Thoughts summed score (IDR n=8, 2 h): 7 | MADRS Suicidal Thoughts improvement (points) (IDR n=8, 2 h): 8 | MADRS Suicidal Thoughts percentage improvement (IDR n=8, 2 h): 73% and 72.72% | MADRS Suicidal Thoughts summed score (IDR n=8, 2 h): 3 | BPRS Anxiety improvement (points) (IDR n=8, 3 h): 18 | BPRS Anxiety percentage improvement (IDR n=8, 3 h): 49% and 48.65% | BPRS Anxiety summed score (IDR n=8, 3 h): 19 | BPRS Blunted Affect improvement (points) (IDR n=8, 3 h): 4 | BPRS Blunted Affect percentage improvement (IDR n=8, 3 h): 27% and 26.67% | BPRS Blunted Affect summed score (IDR n=8, 3 h): 11 | BPRS Emotional Withdrawal improvement (points) (IDR n=8, 3 h): 5 | BPRS Emotional Withdrawal percentage improvement (IDR n=8, 3 h): 38% and 38.46% | BPRS Emotional Withdrawal summed score (IDR n=8, 3 h): 8 | BPRS Guilt Feelings improvement (points) (IDR n=8, 3 h): 20 | BPRS Guilt Feelings percentage improvement (IDR n=8, 3 h): 59% and 58.82% | BPRS Guilt Feelings summed score (IDR n=8, 3 h): 14 | BPRS Tension improvement (points) (IDR n=8, 3 h): 5 | BPRS Tension percentage improvement (IDR n=8, 3 h): 31% and 31.25% | BPRS Tension summed score (IDR n=8, 3 h): 11 | BPRS Anxiety improvement (points) (IDR n=8, Day 1): 21 | BPRS Anxiety percentage improvement (IDR n=8, Day 1): 57% and 56.76% | BPRS Anxiety summed score (IDR n=8, Day 1): 16 | BPRS Blunted Affect improvement (points) (IDR n=8, Day 1): 7 | BPRS Blunted Affect percentage improvement (IDR n=8, Day 1): 47% and 46.67% | BPRS Blunted Affect summed score (IDR n=8, Day 1): 8 | BPRS Emotional Withdrawal improvement (points) (IDR n=8, Day 1): 5 | BPRS Emotional Withdrawal percentage improvement (IDR n=8, Day 1): 38% and 38.46% | BPRS Emotional Withdrawal summed score (IDR n=8, Day 1): 8 | BPRS Guilt Feelings improvement (points) (IDR n=8, Day 1): 23 | BPRS Guilt Feelings percentage improvement (IDR n=8, Day 1): 68% and 67.65% | BPRS Guilt Feelings summed score (IDR n=8, Day 1): 11 | BPRS Tension improvement (points) (IDR n=8, Day 1): 5 | BPRS Tension percentage improvement (IDR n=8, Day 1): 31% and 31.25% | BPRS Tension summed score (IDR n=8, Day 1): 11 | MADRS Concentration Difficulties improvement (points) (IDR n=8, Day 1): 29 | MADRS Concentration Difficulties percentage improvement (IDR n=8, Day 1): 97% and 96.67% | MADRS Concentration Difficulties summed score (IDR n=8, Day 1): 1 | MADRS Inability to Feel improvement (points) (IDR n=8, Day 1): 34 | MADRS Inability to Feel percentage improvement (IDR n=8, Day 1): 94% and 94.44% | MADRS Inability to Feel summed score (IDR n=8, Day 1): 2 | MADRS Inner Tension improvement (points) (IDR n=8, Day 1): 20 | MADRS Inner Tension percentage improvement (IDR n=8, Day 1): 77% and 76.92% | MADRS Inner Tension summed score (IDR n=8, Day 1): 6 | MADRS Lassitude improvement (points) (IDR n=8, Day 1): 22 | MADRS Lassitude percentage improvement (IDR n=8, Day 1): 81% and 81.48% | MADRS Lassitude summed score (IDR n=8, Day 1): 5 | MADRS Pessimistic Thoughts improvement (points) (IDR n=8, Day 1): 24 | MADRS Pessimistic Thoughts percentage improvement (IDR n=8, Day 1): 86% and 85.71% | MADRS Pessimistic Thoughts summed score (IDR n=8, Day 1): 4 | MADRS Reduced Sleep improvement (points) (IDR n=8, Day 1): 13 | MADRS Reduced Sleep percentage improvement (IDR n=8, Day 1): 52% | MADRS Reduced Sleep summed score (IDR n=8, Day 1): 12 | MADRS Suicidal Thoughts improvement (points) (IDR n=8, Day 1): 10 | MADRS Suicidal Thoughts percentage improvement (IDR n=8, Day 1): 91% and 90.91% | MADRS Suicidal Thoughts summed score (IDR n=8, Day 1): 1 | BPRS Anxiety improvement (points) (IDR n=8, Day 7): 20 | BPRS Anxiety percentage improvement (IDR n=8, Day 7): 54% and 54.05% | BPRS Anxiety summed score (IDR n=8, Day 7): 17 | BPRS Blunted Affect improvement (points) (IDR n=8, Day 7): 7 | BPRS Blunted Affect percentage improvement (IDR n=8, Day 7): 47% and 46.67% | BPRS Blunted Affect summed score (IDR n=8, Day 7): 8 | BPRS Emotional Withdrawal improvement (points) (IDR n=8, Day 7): 5 | BPRS Emotional Withdrawal percentage improvement (IDR n=8, Day 7): 38% and 38.46% | BPRS Emotional Withdrawal summed score (IDR n=8, Day 7): 8 | BPRS Guilt Feelings improvement (points) (IDR n=8, Day 7): 24 | BPRS Guilt Feelings percentage improvement (IDR n=8, Day 7): 71% and 70.59% | BPRS Guilt Feelings summed score (IDR n=8, Day 7): 10 | BPRS Tension improvement (points) (IDR n=8, Day 7): 6 | BPRS Tension percentage improvement (IDR n=8, Day 7): 38% and 37.50% | BPRS Tension summed score (IDR n=8, Day 7): 10 | MADRS Concentration Difficulties improvement (points) (IDR n=8, Day 7): 21 | MADRS Concentration Difficulties percentage improvement (IDR n=8, Day 7): 70% | MADRS Concentration Difficulties summed score (IDR n=8, Day 7): 9 | MADRS Inability to Feel improvement (points) (IDR n=8, Day 7): 30 | MADRS Inability to Feel percentage improvement (IDR n=8, Day 7): 83% and 83.33% | MADRS Inability to Feel summed score (IDR n=8, Day 7): 6 | MADRS Inner Tension improvement (points) (IDR n=8, Day 7): 14 | MADRS Inner Tension percentage improvement (IDR n=8, Day 7): 54% and 53.85% | MADRS Inner Tension summed score (IDR n=8, Day 7): 12 | MADRS Lassitude improvement (points) (IDR n=8, Day 7): 24 | MADRS Lassitude percentage improvement (IDR n=8, Day 7): 89% and 88.89% | MADRS Lassitude summed score (IDR n=8, Day 7): 3 | MADRS Pessimistic Thoughts improvement (points) (IDR n=8, Day 7): 25 | MADRS Pessimistic Thoughts percentage improvement (IDR n=8, Day 7): 89% and 89.29% | MADRS Pessimistic Thoughts summed score (IDR n=8, Day 7): 3 | MADRS Reduced Sleep improvement (points) (IDR n=8, Day 7): 16 | MADRS Reduced Sleep percentage improvement (IDR n=8, Day 7): 64% | MADRS Reduced Sleep summed score (IDR n=8, Day 7): 9 | MADRS Suicidal Thoughts improvement (points) (IDR n=8, Day 7): 8 | MADRS Suicidal Thoughts percentage improvement (IDR n=8, Day 7): 73% and 72.73% | MADRS Suicidal Thoughts summed score (IDR n=8, Day 7): 3 | patients with MADRS remission (primary endpoint) (IDR n=8, day seven): 87.5% | SAEs reported (Part A): No SAEs | safety laboratory analyses, vital signs, psychiatric safety assessments, measures of cognitive function (Part A and Part B): No clinically significant changes | patients who experienced at least one ADR (Part A, in both groups (12 mg and 18 mg)): 3 of 4 | SAEs reported (Part B IDR): No SAEs | patients who experienced at least one ADR (Part B IDR n=8): 87.5% | patients achieving remission (fraction) (day 1): 8/8 | patients achieving remission (fraction) (within 2 h after dosing): ⅝

Reference: patent US20240108602A1, “TREATMENT OF MENTAL DISORDERS” (GH Research Ireland Limited, priority 2022, published 2024)
